{
  "source": "the supplement of paper PMC10307832",
  "test_in_all_cases": "relative viability (nuclei count vs DMSO), 5 days (fraction); higher = more cells survive",
  "key": {"Avagacestat": {"compound": "NC(=O)[C@@H](CCC(F)(F)F)N(Cc1ccc(-c2ncon2)cc1F)S(=O)(=O)c1ccc(Cl)cc1 [Avagacestat]", "outline": "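Following overnight incubation at 37 °C, lung cancer cell lines in 1536-well plates were pinned with five library-drug doses (not always all listed) in √10 steps on vehicle-anchored plates. The cells then spent 5 days without medium change before a combined fix, permeabilisation and Hoechst stain, 4× imaging and MetaXpress nuclear counts. Viability is the treated-to-vehicle ratio of nuclei, taken as the median across plates. Only plates with control CV below 25% and at least one doubling passed.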"}, "Avagacestat + Bortezomib": {"compound": "NC(=O)[C@@H](CCC(F)(F)F)N(Cc1ccc(-c2ncon2)cc1F)S(=O)(=O)c1ccc(Cl)cc1 [Avagacestat] + CC(C)C[C@H](NC(=O)[C@H](Cc1ccccc1)NC(=O)c1cnccn1)B(O)O [Bortezomib] (partner 0.002 µM)", "outline": "(§1)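 Nuclei were stained with Hoechst during a one-step fixation (final 0.05% Triton X-100, 1% formaldehyde, 1 ug/ml Hoechst) carried out 5 days after dosing, then counted on 4× images. The cells, lung cancer lines in 1536-well plates, had been dosed by pin tool the day after seeding with one drug alone or a fixed anchor-drug dose plus five library-drug doses (not always all listed) in √10 steps. Relative viability is the nuclei count in treated wells divided by that in vehicle wells, and each value is the median of duplicate plates.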"}, "Avagacestat + Navitoclax": {"compound": "NC(=O)[C@@H](CCC(F)(F)F)N(Cc1ccc(-c2ncon2)cc1F)S(=O)(=O)c1ccc(Cl)cc1 [Avagacestat] + CC1(C)CCC(c2ccc(Cl)cc2)=C(CN2CCN(c3ccc(C(=O)NS(=O)(=O)c4ccc(N[C@H](CCN5CCOCC5)CSc5ccccc5)c(S(=O)(=O)C(F)(F)F)c4)cc3)CC2)C1 [Navitoclax] (partner 0.5 µM)", "outline": "as §1"}, "Avagacestat + Foretinib": {"compound": "NC(=O)[C@@H](CCC(F)(F)F)N(Cc1ccc(-c2ncon2)cc1F)S(=O)(=O)c1ccc(Cl)cc1 [Avagacestat] + COc1cc2c(Oc3ccc(NC(=O)C4(C(=O)Nc5ccc(F)cc5)CC4)cc3F)ccnc2cc1OCCCN1CCOCC1 [Foretinib] (partner 0.25 µM)", "outline": "as §1"}, "Avagacestat + Lapatinib": {"compound": "NC(=O)[C@@H](CCC(F)(F)F)N(Cc1ccc(-c2ncon2)cc1F)S(=O)(=O)c1ccc(Cl)cc1 [Avagacestat] + CS(=O)(=O)CCNCc1ccc(-c2ccc3ncnc(Nc4ccc(OCc5cccc(F)c5)c(Cl)c4)c3c2)o1 [Lapatinib] (partner 2 µM)", "outline": "as §1"}, "Avagacestat + Pictilisib": {"compound": "NC(=O)[C@@H](CCC(F)(F)F)N(Cc1ccc(-c2ncon2)cc1F)S(=O)(=O)c1ccc(Cl)cc1 [Avagacestat] + CS(=O)(=O)N1CCN(Cc2cc3nc(-c4cccc5[nH]ncc45)nc(N4CCOCC4)c3s2)CC1 [Pictilisib] (partner 1 µM)", "outline": "as §1"}, "Avagacestat + Crizotinib": {"compound": "NC(=O)[C@@H](CCC(F)(F)F)N(Cc1ccc(-c2ncon2)cc1F)S(=O)(=O)c1ccc(Cl)cc1 [Avagacestat] + C[C@@H](Oc1cc(-c2cnn(C3CCNCC3)c2)cnc1N)c1c(Cl)ccc(F)c1Cl [Crizotinib] (partner 1 µM)", "outline": "as §1"}, "Avagacestat + Linsitinib": {"compound": "NC(=O)[C@@H](CCC(F)(F)F)N(Cc1ccc(-c2ncon2)cc1F)S(=O)(=O)c1ccc(Cl)cc1 [Avagacestat] + C[C@]1(O)C[C@@H](c2nc(-c3ccc4ccc(-c5ccccc5)nc4c3)c3c(N)nccn32)C1 [Linsitinib] (partner 1 µM)", "outline": "as §1"}, "Avagacestat + Alpelisib": {"compound": "NC(=O)[C@@H](CCC(F)(F)F)N(Cc1ccc(-c2ncon2)cc1F)S(=O)(=O)c1ccc(Cl)cc1 [Avagacestat] + Cc1nc(NC(=O)N2CCC[C@H]2C(N)=O)sc1-c1ccnc(C(C)(C)C(F)(F)F)c1 [Alpelisib] (partner 2 µM)", "outline": "as §1"}, "Avagacestat + Vorinostat": {"compound": "NC(=O)[C@@H](CCC(F)(F)F)N(Cc1ccc(-c2ncon2)cc1F)S(=O)(=O)c1ccc(Cl)cc1 [Avagacestat] + O=C(CCCCCCC(=O)Nc1ccccc1)NO [Vorinostat] (partner 1 µM)", "outline": "as §1"}, "Avagacestat + Olaparib": {"compound": "NC(=O)[C@@H](CCC(F)(F)F)N(Cc1ccc(-c2ncon2)cc1F)S(=O)(=O)c1ccc(Cl)cc1 [Avagacestat] + O=C(c1cc(Cc2n[nH]c(=O)c3ccccc23)ccc1F)N1CCN(C(=O)C2CC2)CC1 [Olaparib] (partner 8 µM)", "outline": "as §1"}},
  "data": [
    {"cell line": "IA-LM", "values": [
      {"measurement": "relative viability", "setting": "Avagacestat; 0.08 µM", "value": 1.83},
      {"measurement": "relative viability", "setting": "Avagacestat; 0.253 µM", "value": 1.62},
      {"measurement": "relative viability", "setting": "Avagacestat; 0.8 µM", "value": 1.44},
      {"measurement": "relative viability", "setting": "Avagacestat; 2.53 µM", "value": 1.51},
      {"measurement": "relative viability", "setting": "Avagacestat; 8 µM", "value": 1.26},
      {"measurement": "relative viability", "setting": "Avagacestat + Bortezomib; first compound 0.08 µM", "value": 1.39},
      {"measurement": "relative viability", "setting": "Avagacestat + Bortezomib; first compound 0.253 µM", "value": 1.28},
      {"measurement": "relative viability", "setting": "Avagacestat + Bortezomib; first compound 0.8 µM", "value": 0.823},
      {"measurement": "relative viability", "setting": "Avagacestat + Bortezomib; first compound 2.53 µM", "value": 0.855},
      {"measurement": "relative viability", "setting": "Avagacestat + Bortezomib; first compound 8 µM", "value": 1.25},
      {"measurement": "relative viability", "setting": "Avagacestat + Navitoclax; first compound 0.08 µM", "value": 1.25},
      {"measurement": "relative viability", "setting": "Avagacestat + Navitoclax; first compound 0.253 µM", "value": 1.3},
      {"measurement": "relative viability", "setting": "Avagacestat + Navitoclax; first compound 0.8 µM", "value": 1.34},
      {"measurement": "relative viability", "setting": "Avagacestat + Navitoclax; first compound 2.53 µM", "value": 1.21},
      {"measurement": "relative viability", "setting": "Avagacestat + Navitoclax; first compound 8 µM", "value": 1.18},
      {"measurement": "relative viability", "setting": "Avagacestat + Foretinib; first compound 0.08 µM", "value": 1.76},
      {"measurement": "relative viability", "setting": "Avagacestat + Foretinib; first compound 0.253 µM", "value": 1.68},
      {"measurement": "relative viability", "setting": "Avagacestat + Foretinib; first compound 0.8 µM", "value": 1.71},
      {"measurement": "relative viability", "setting": "Avagacestat + Foretinib; first compound 2.53 µM", "value": 1.37},
      {"measurement": "relative viability", "setting": "Avagacestat + Foretinib; first compound 8 µM", "value": 1.4},
      {"measurement": "relative viability", "setting": "Avagacestat + Lapatinib; first compound 0.08 µM", "value": 1.8},
      {"measurement": "relative viability", "setting": "Avagacestat + Lapatinib; first compound 0.253 µM", "value": 1.39},
      {"measurement": "relative viability", "setting": "Avagacestat + Lapatinib; first compound 0.8 µM", "value": 1.38},
      {"measurement": "relative viability", "setting": "Avagacestat + Lapatinib; first compound 2.53 µM", "value": 1},
      {"measurement": "relative viability", "setting": "Avagacestat + Lapatinib; first compound 8 µM", "value": 1.07},
      {"measurement": "relative viability", "setting": "Avagacestat + Pictilisib; first compound 0.08 µM", "value": 1.1},
      {"measurement": "relative viability", "setting": "Avagacestat + Pictilisib; first compound 0.253 µM", "value": 1.02},
      {"measurement": "relative viability", "setting": "Avagacestat + Pictilisib; first compound 0.8 µM", "value": 0.711},
      {"measurement": "relative viability", "setting": "Avagacestat + Pictilisib; first compound 2.53 µM", "value": 0.802},
      {"measurement": "relative viability", "setting": "Avagacestat + Pictilisib; first compound 8 µM", "value": 0.525},
      {"measurement": "relative viability", "setting": "Avagacestat + Crizotinib; first compound 0.08 µM", "value": 1.98},
      {"measurement": "relative viability", "setting": "Avagacestat + Crizotinib; first compound 0.253 µM", "value": 1.36},
      {"measurement": "relative viability", "setting": "Avagacestat + Crizotinib; first compound 0.8 µM", "value": 1.09},
      {"measurement": "relative viability", "setting": "Avagacestat + Crizotinib; first compound 2.53 µM", "value": 0.879},
      {"measurement": "relative viability", "setting": "Avagacestat + Crizotinib; first compound 8 µM", "value": 1.1},
      {"measurement": "relative viability", "setting": "Avagacestat + Linsitinib; first compound 0.08 µM", "value": 1.24},
      {"measurement": "relative viability", "setting": "Avagacestat + Linsitinib; first compound 0.253 µM", "value": 0.859},
      {"measurement": "relative viability", "setting": "Avagacestat + Linsitinib; first compound 0.8 µM", "value": 1.11},
      {"measurement": "relative viability", "setting": "Avagacestat + Linsitinib; first compound 2.53 µM", "value": 1.01},
      {"measurement": "relative viability", "setting": "Avagacestat + Linsitinib; first compound 8 µM", "value": 0.984},
      {"measurement": "relative viability", "setting": "Avagacestat + Alpelisib; first compound 0.08 µM", "value": 1.09},
      {"measurement": "relative viability", "setting": "Avagacestat + Alpelisib; first compound 0.253 µM", "value": 1.62},
      {"measurement": "relative viability", "setting": "Avagacestat + Alpelisib; first compound 0.8 µM", "value": 1.74},
      {"measurement": "relative viability", "setting": "Avagacestat + Alpelisib; first compound 2.53 µM", "value": 1.43},
      {"measurement": "relative viability", "setting": "Avagacestat + Alpelisib; first compound 8 µM", "value": 1.16},
      {"measurement": "relative viability", "setting": "Avagacestat + Vorinostat; first compound 0.08 µM", "value": 1.56},
      {"measurement": "relative viability", "setting": "Avagacestat + Vorinostat; first compound 0.253 µM", "value": 1.59},
      {"measurement": "relative viability", "setting": "Avagacestat + Vorinostat; first compound 0.8 µM", "value": 1.51},
      {"measurement": "relative viability", "setting": "Avagacestat + Vorinostat; first compound 2.53 µM", "value": 0.957},
      {"measurement": "relative viability", "setting": "Avagacestat + Vorinostat; first compound 8 µM", "value": 0.992},
      {"measurement": "relative viability", "setting": "Avagacestat + Olaparib; first compound 0.08 µM", "value": 1.33},
      {"measurement": "relative viability", "setting": "Avagacestat + Olaparib; first compound 0.253 µM", "value": 1.37},
      {"measurement": "relative viability", "setting": "Avagacestat + Olaparib; first compound 0.8 µM", "value": 1.15},
      {"measurement": "relative viability", "setting": "Avagacestat + Olaparib; first compound 2.53 µM", "value": 1.06},
      {"measurement": "relative viability", "setting": "Avagacestat + Olaparib; first compound 8 µM", "value": 1.05}
    ]}
  ]
}
